Source: the METLIN SMRT retention time set (Domingo-Almenara et al. 2019)

Assay: gradient 5% acetonitrile 3 min, to 50% in 2 min, to 85% in 15 min, held 3 min, 100 µL/min
Details: column: Zorbax Extend-C18 2.1 x 50 mm; eluents: water / acetonitrile, 0.1% formic acid
Outline: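 Standards, all pure, were combined into mixtures of ~100 molecules and run at 100 μL/min on a Zorbax Extend-C18 column (2.1 × 50 mm, 1.8 μm) with water and acetonitrile, each containing 0.1% formic acid. A coupled quadrupole time-of-flight mass spectrometer operated in positive and negative ionization mode. Retention time values come from computationally picked adduct peaks, each inspected manually.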

Structure (SMILES) | RP-LC retention time [s]
CCCNC(=O)c1cnn(-c2ccc(-c3nc(C(C)C)no3)cn2)c1C | 907
CN1CCC(N2CCN(S(=O)(=O)c3cc(-c4nc(C(C)(C)C)cs4)cs3)CC2)CC1 | 660
O=C(/C=C/c1ccccc1Cl)c1ccc(O)cc1 | 944
CCOc1ccc(S(=O)(=O)[C@H]2CS(=O)(=O)C[C@@H]2N2CCC(C(=O)OC)CC2)cc1 | 858
CCC(C)NC(=O)c1cnn(-c2cc(-c3nc(C4CC4)no3)ccn2)c1C (stereo not given) | 973
Cc1ccc(CNS(=O)(=O)c2cc(-c3[nH]ncc3C(=O)N(C)C)oc2C)cc1 | 712
COC[C@@H]1CN(S(=O)(=O)c2ccc(F)cc2)C[C@H]1c1nc(C)no1 | 858
CC(C)(C)C1CCc2[nH]nc(C(=O)N3CCc4nn(CC#N)c(=O)n4CC3)c2C1 (stereo not given) | 760
COc1ccc(-c2nnc(SCc3cccc(C(F)(F)F)c3)o2)cc1OC | 992
CCCn1cc(S(=O)(=O)Nc2cc(C)ccc2F)c2cccnc21 | 921
CC(C)S(=O)(=O)c1ccc(Cc2nnc(NC(=O)c3ccc4ncsc4c3)o2)cc1 | 641
O=C1CC(c2ccc3c(c2)OCO3)c2scc(S(=O)(=O)c3ccccc3)c2N1 (stereo not given) | 905
Cc1cccn2cc(C(=O)NCCC3=CCCCC3)nc12 | 860
c1cnn(-c2ccc(-c3noc(-c4ccc5c(c4)OCO5)n3)cn2)c1 | 1170
CCOc1ccc(Cc2nc(-c3ccc4oc(C)nc4c3)no2)cc1OCC | 1040
CC(C)c1nc2c(NC(=O)C3CC3)cccn2n1 | 733
CCOC(=O)N1CCN(c2nnc(SCC(=O)NCc3ccco3)s2)CC1 | 668
COc1ccc(C(=O)N2C[C@@H]3C[C@H](NC(=O)c4cccs4)[C@H]2C3)cn1 | 679
Cc1noc(C)c1CNC(=O)c1ccc2c(c1)OCO2 | 683
Cc1sc(C)c(S(=O)(=O)NCc2ccc(N(C)C)cc2)c1-c1cc(C(F)(F)F)on1 | 960
CC(NC(=O)C1CCN(c2cnc3nccnc3c2)CC1)c1ccc(F)cc1 (stereo not given) | 702
COC(=O)c1ncn2c1C(=O)N(Cc1ccc(C)cc1)C(C)(C(=O)NC1CCCC1)C2 (stereo not given) | 766
CN(CCOC(=O)c1cccs1)Cc1ccccc1 | 623
O=C(CCn1cnc2ccccc2c1=O)N1CCN(CCn2cccn2)CC1 | 539
CC(C)NCC(O)COc1ccc(Br)cc1Br (stereo not given) | 586
Cn1nc(C(F)(F)F)cc1C(=O)N1CCCC1c1cccc(F)c1 (stereo not given) | 976
CC1=NS(=O)(=O)N(C)C=C1C(=O)OCc1nc(-c2ccccc2C)no1 | 1000
CN1C(=O)C2CCCCN2c2ccc(C(=O)NCCCN3CCCC3)cc21 (stereo not given) | 586
CCS(=O)(=O)N1CC(c2nc(-c3ccc(F)cc3)no2)C2(CCOCC2)C1 (stereo not given) | 877
CN1CCN(C(=O)c2cc3c(s2)CCN(C(=O)c2ccc(Cl)cc2)C3)CC1 | 627

Continued, values first:

RP-LC retention time [s] | Structure (SMILES)
684 | Cn1c(=O)n([C@H]2CCCN(C(=O)Nc3ccc4c(c3)OCCO4)C2)c2ncccc21
776 | COc1cc(-c2ccccc2)nc2ccc(NC(=O)COc3ccc(F)cc3)cc12
1090 | Cc1nc(-c2csc(S(=O)(=O)N3CCCC(C(=O)Nc4ccc(C(C)C)cc4)C3)c2)no1 (stereo not given)
795 | CN(C)S(=O)(=O)c1ccc2c(c1)N(CC(=O)Nc1ccccn1)C(=O)C1CCCCN21 (stereo not given)
985 | CCCCn1cc(S(=O)(=O)Nc2ccccc2C)c2cccnc21
706 | Cc1noc(C)c1CCNC(=O)Cn1c2ccccc2c2cnn(C)c(=O)c21
722 | CNC(=O)c1ccccc1Nc1nc(Nc2ccc(N3CCOCC3)cc2OC)ncc1Cl
937 | O=C(c1ccc(-c2ccc3c(c2)CCN3S(=O)(=O)c2cccc(F)c2)cc1)N1CCOCC1
612 | COc1ccc(Cl)cc1Nc1nc(N)nc(CN2CCN(c3ccccn3)CC2)n1
1050 | CCCOc1ccc(C(=O)Nc2nnc(SCc3nnc(-c4ccccc4)o3)s2)cc1
757 | COc1ccc(NC(=O)Cn2c(N3CCc4ccccc4C3)nc(C)cc2=O)cc1
656 | COc1ccc(C2(C(=O)N3CCCC(Cn4cnc5cccnc54)C3)CC2)cc1 (stereo not given)
1060 | O=C(COc1ccc(Cl)cc1Cl)Nc1ccc2c(c1)N(C(=O)c1cccs1)CC2
851 | CC(C)CCNC(=O)c1nc(Nc2ccc(F)cc2)c2ccccc2n1
774 | O=C(Cn1cc(S(=O)(=O)Cc2cccc(Cl)c2)c2ccccc21)N1CCOCC1
861 | COC(=O)Nc1ccc(-c2nc(N3CCOCC3)c3cnn(C4CCN(C(=O)OC)CC4)c3n2)cc1
748 | CN(c1nccn2c(=O)n(CC(=O)Nc3ccccc3F)nc12)C1CCCCC1
767 | COc1cc(C(=O)NC(C)C(=O)Nc2nc3ccccc3[nH]2)cc(OC)c1OC (stereo not given)

RP-LC retention time [s] | Structure (SMILES)
1240 | O=C(Nc1ccc(-c2nc(-c3ccc(Cl)cc3)no2)cc1)c1cccs1
647 | COc1ccc(C(=O)Nc2c(-c3ccc(F)cc3)nc3cc(C)ccn23)cc1OC
570 | Cc1nnc2c(=O)n(CC(=O)NCc3ccc(N(C)C)cc3)c3cccnc3n12
800 | Cc1cccc(OCC(=O)Nc2c(C(=O)N3CCN(c4ccccn4)CC3)oc3ccccc23)c1
1000 | O=C(Nc1ccc(Cl)cc1)c1cccn1Cc1noc(C2CC2)n1
763 | CC(=O)Nc1cccc(-c2nc(-c3cccc(-c4ccn[nH]4)c3)no2)c1
606 | Cc1ccc(CN(C)Cc2cc(=O)n3ccccc3n2)cc1
1000 | O=C(Cn1cccc1-c1nc(-c2ccc3c(c2)OCO3)no1)Nc1cc(F)ccc1F
772 | CC(C)c1ccc(S(=O)(=O)N(CC(=O)N2CCNCC2)CC(C)c2ccccc2)cc1 (stereo not given)
925 | Cc1cccc(Cn2c(=O)n(C)c(=O)c3snc(-c4ccccn4)c32)c1
666 | Cc1c(Cl)ccc2c(=O)c3c([nH]c12)CCN(CC(=O)NCc1ccc2c(c1)OCO2)C3
756 | COc1ccc(NC(=O)Cn2c(=O)c(CCC(=O)NCC(C)C)nc3ccccc32)cc1OC
930 | Cc1ccc(-c2csc(NC(=O)Cc3csc(C)n3)n2)cc1
1200 | CCOc1ccc(-c2noc(Cc3nc(-c4ccc5c(c4)OCO5)cs3)n2)cc1
721 | CCOC(=O)c1csc(NC(=O)c2ccccc2[N+](=O)[O-])n1
631 | O=C(c1ccccn1)N1CCC(n2c(-c3ccoc3)nc3cccnc32)C1 (stereo not given)
700 | COc1ccc(C(=O)CSc2nnc(NC(=O)CN(C)S(C)(=O)=O)s2)cc1
